Our source for the T/C values is PubChem BioAssay AID200 (DTP/NCI, 2004).

Where “and” joins values, the source holds several entries; their conditions need not be identical. Equal values may be shown once. Inconclusive results and toxic doses are left out. Where a SMILES comes first, the peptide text is derived from it.

The test has as its system B6C3F1 mice, B16 melanoma ip, median survival T/C. Description: NCI In Vivo Anticancer Drug Screen. Data for tumor model B16 Melanoma (intraperitoneal) in B6C3F1 mice. As to conditions: endpoint: median survival time, higher = longer survival. The gist of the method:
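Tumor-bearing mice received test compound; a separate group got vehicle only. Survival was then compared, with results reported as treated over control.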

[1] abbreviates: dose: 25.0 mg/kg/injection, schedule: Q01DX009 (ip), vehicle: saline.
The mark [2] stands for this setting: dose: 3.12 mg/kg/injection, schedule: Q01DX009 (ip), vehicle: saline with Tween-80.
Setting [3] is: dose: 50.0 mg/kg/injection, schedule: Q01DX009 (ip), vehicle: Klucel (hydroxypropylcellulose) (HPC).
[4] abbreviates: dose: 100.0 mg/kg/injection, schedule: Q01DX009 (ip), vehicle: Klucel (hydroxypropylcellulose) (HPC).
Setting [5] is: dose: 12.5 mg/kg/injection, schedule: Q01DX009 (ip), vehicle: saline with Tween-80.
Setting [6] is: dose: 25.0 mg/kg/injection, schedule: Q01DX009 (ip), vehicle: saline with Tween-80.
Where [7] appears, read: dose: 50.0 mg/kg/injection, schedule: Q01DX009 (ip), vehicle: saline with Tween-80.
The mark [8] stands for this setting: dose: 100.0 mg/kg/injection, schedule: Q01DX009 (ip), vehicle: saline with Tween-80.
Setting [9] is: dose: 200.0 mg/kg/injection, schedule: Q01DX009 (ip), vehicle: Klucel (hydroxypropylcellulose) (HPC).
Where [10] appears, read: dose: 6.25 mg/kg/injection, schedule: Q01DX009 (ip), vehicle: water.
[11] abbreviates: dose: 12.5 mg/kg/injection, schedule: Q01DX009 (ip), vehicle: water.
Setting [12] is: dose: 25.0 mg/kg/injection, schedule: Q01DX009 (ip), vehicle: water.
Where [13] appears, read: dose: 100.0 mg/kg/injection, schedule: Q01DX009 (ip), vehicle: saline.
[14] abbreviates: dose: 200.0 mg/kg/injection, schedule: Q01DX009 (ip), vehicle: saline.

On to `O=c1c(O)c(O)c1=O.[NH2-].[NH2-].[NH2-].[NH2-].[NH2-].[Ru+5]`, for which the T/C (dose: 3.12 mg/kg/injection, schedule: Q01DX009 (ip), vehicle: saline) is 110 % of control; the T/C (dose: 3.75 mg/kg/injection, schedule: Q01DX009 (ip), vehicle: saline) is 104 % of control; the T/C (dose: 6.25 mg/kg/injection, schedule: Q01DX009 (ip), vehicle: saline) was 120 % of control; the T/C (dose: 10.42 mg/kg/injection, schedule: Q01DX009 (ip), vehicle: saline) is 122 % of control; the T/C under setting [1] is 87 % of control.

As to `NC(=O)/C=C/C(=O)c1c(Cl)cccc1Cl`, the T/C was 100 % of control (dose: 0.78 mg/kg/injection, schedule: Q01DX009 (ip), vehicle: saline with Tween-80); 103 % of control (dose: 1.56 mg/kg/injection, schedule: Q01DX009 (ip), vehicle: saline with Tween-80); 90 % of control under setting [2].

`CC(NC(=O)c1ccccc1)C(=O)O` (centres undefined): the T/C runs as follows: (dose: 40.0 mg/kg/injection, schedule: Q01DX009 (ip), vehicle: saline with Tween-80) 97 % of control; (dose: 80.0 mg/kg/injection, schedule: Q01DX009 (ip), vehicle: saline with Tween-80) 90 % of control.

On to `COC1C(CO)OC(n2cnc3c(=S)nc(N)[nH]c32)C1O` (centres undefined), for which the T/C is, setting by setting: under setting [3], 116 % of control; under setting [4], 114 % of control.

Turning to `CC1OC(=O)C(C(C)C)NC(=O)C(C(C)C)OC(=O)C(C(C)C)NC(=O)C(C)OC(=O)C(C(C)C)NC(=O)C(C(C)C)OC(=O)C(C(C)C)NC(=O)C(C)OC(=O)C(C(C)C)NC(=O)C(C(C)C)OC(=O)C(C(C)C)NC1=O` (centres undefined), the T/C runs as follows: (dose: 0.75 mg/kg/injection, schedule: Q01DX009 (oral), vehicle: Klucel (hydroxypropylcellulose) (HPC)) 104 % of control; (dose: 1.5 mg/kg/injection, schedule: Q01DX009 (oral), vehicle: Klucel (hydroxypropylcellulose) (HPC)) 104 % of control; (dose: 3.0 mg/kg/injection, schedule: Q01DX009 (oral), vehicle: Klucel (hydroxypropylcellulose) (HPC)) 105 % of control; (dose: 6.0 mg/kg/injection, schedule: Q01DX009 (oral), vehicle: Klucel (hydroxypropylcellulose) (HPC)) 100 % of control; (dose: 12.0 mg/kg/injection, schedule: Q01DX009 (oral), vehicle: Klucel (hydroxypropylcellulose) (HPC)) 105 % of control; (dose: 24.0 mg/kg/injection, schedule: Q01DX009 (oral), vehicle: Klucel (hydroxypropylcellulose) (HPC)) 104 % of control.

With `CC(C)(C)OC(=O)NC(CCCCNC(=O)C(F)(F)F)C(=O)ON1C(=O)CCC1=O` (centres undefined), the T/C by setting is: under setting [5], 91 % of control; under setting [6], 94 % of control; under setting [7], 96 % of control and 102 % of control.

Regarding `O=C1NCC(Br)C(=O)N1` (centres undefined), the T/C by setting is: (dose: 6.25 mg/kg/injection, schedule: Q01DX009 (ip), vehicle: saline + Tween-80 + alcohol) 90 % of control; (dose: 12.5 mg/kg/injection, schedule: Q01DX009 (ip), vehicle: saline + Tween-80 + alcohol) 99 % of control and 101 % of control; under setting [5], 102 % of control; (dose: 25.0 mg/kg/injection, schedule: Q01DX009 (ip), vehicle: saline + Tween-80 + alcohol) 100 % of control and 106 % of control; under setting [6], 94 % of control and 105 % of control; (dose: 50.0 mg/kg/injection, schedule: Q01DX009 (ip), vehicle: saline + Tween-80 + alcohol) 114 % of control and 105 % of control. Moreover, the T/C by setting is: under setting [7], 114 % of control; (dose: 100.0 mg/kg/injection, schedule: Q01DX009 (ip), vehicle: saline + Tween-80 + alcohol) 109 % of control and 100 % of control; under setting [8], 116 % of control; (dose: 200.0 mg/kg/injection, schedule: Q01DX009 (ip), vehicle: saline + Tween-80 + alcohol) 96 % of control.

Take `COC(=O)C(CSCc1ccccc1)NC(=O)C(C)NC(=O)OCc1ccccc1` (centres undefined): the T/C by setting is: under setting [3], 97 % of control; under setting [4], 90 % of control; under setting [9], 90 % of control.

For the compound `COc1cc2cc(c1Cl)N1CC(O)C(C)(O)C(=O)NC(C)C(=O)OC(CC1=O)C1(C)OC1C(C)C1CC(O)(NC(=O)O1)C(OC)/C=C\C=C(\C)C2OC` (centres undefined), the T/C is 164 % of control and 165 % of control (dose: 2.0 micrograms/kg/injection, schedule: Q01DX009 (ip), vehicle: distilled water + alcohol); 170 % of control and 185 % of control (dose: 4.0 micrograms/kg/injection, schedule: Q01DX009 (ip), vehicle: distilled water + alcohol); 176 % of control and 195 % of control and 196 % of control (dose: 8.0 micrograms/kg/injection, schedule: Q01DX009 (ip), vehicle: distilled water + alcohol); 183 % of control and 197 % of control and 212 % of control (dose: 16.0 micrograms/kg/injection, schedule: Q01DX009 (ip), vehicle: distilled water + alcohol).

In the case of `C/C(=N\NC(=S)N1CCN(c2ccccn2)CC1)c1ccccn1`, the T/C under setting [10] is 99 % of control, the T/C under setting [11] is 99 % of control and the T/C under setting [12] was 111 % of control.

For the compound `Cn1cc(NC(=O)c2cc(NC(=O)c3cc(NC=O)cn3C)cn2C)cc1C(=O)NCCC(=N)N`, the T/C under setting [10] was 99 % of control and 101 % of control and 105 % of control.

As for `Nc1ncnc2c1ncn2C1OC(COP(=O)(O)O)C(O)C1O` (centres undefined), the T/C is 86 % of control (dose: 40.0 mg/kg/injection, schedule: Q01DX009 (ip), vehicle: water); 88 % of control (dose: 80.0 mg/kg/injection, schedule: Q01DX009 (ip), vehicle: water); 109 % of control under setting [13]; 94 % of control (dose: 160.0 mg/kg/injection, schedule: Q01DX009 (ip), vehicle: water); 109 % of control under setting [14]; 97 % of control (dose: 320.0 mg/kg/injection, schedule: Q01DX009 (ip), vehicle: water). The T/C (dose: 400.0 mg/kg/injection, schedule: Q01DX009 (ip), vehicle: saline) is 115 % of control.

`CN1CCN(Cc2nc3cccc4c3c([n+]2[O-])-c2ccccc2-4)CC1`: the T/C under setting [5] is 98 % of control; the T/C under setting [6] was 99 % of control; the T/C under setting [7] is 110 % of control; the T/C under setting [8] is 106 % of control; the T/C (dose: 200.0 mg/kg/injection, schedule: Q01DX009 (ip), vehicle: saline with Tween-80) was 120 % of control.

Consider `CN(C)[C@@H]1C(=O)C(C(N)=O)=C(O)[C@@]2(O)C(=O)C3=C(O)c4c(O)ccc(Cl)c4[C@@](C)(O)[C@H]3C[C@@H]12`, for which the T/C was 97 % of control (dose: 12.5 mg/kg/injection, schedule: Q01DX009 (ip), vehicle: saline); 109 % of control under setting [11]; 97 % of control under setting [1]; 105 % of control under setting [12]; 101 % of control (dose: 50.0 mg/kg/injection, schedule: Q01DX009 (ip), vehicle: saline); 104 % of control (dose: 50.0 mg/kg/injection, schedule: Q01DX009 (ip), vehicle: water). Further, the T/C under setting [13] was 94 % of control; the T/C (dose: 100.0 mg/kg/injection, schedule: Q01DX009 (ip), vehicle: water) was 100 % of control; the T/C under setting [14] is 98 % of control; the T/C (dose: 200.0 mg/kg/injection, schedule: Q01DX009 (ip), vehicle: water) is 106 % of control.

Consider `Nc1nnc[se]1`, for which the T/C is, setting by setting: (dose: 3.0 mg/kg/injection, schedule: Q01DX009 (ip), vehicle: saline with Tween-80) 98 % of control; under setting [2], 101 % of control; (dose: 6.25 mg/kg/injection, schedule: Q01DX009 (ip), vehicle: saline with Tween-80) 101 % of control and 102 % of control; (dose: 12.0 mg/kg/injection, schedule: Q01DX009 (ip), vehicle: saline with Tween-80) 103 % of control; under setting [5], 109 % of control and 102 % of control; under setting [6], 108 % of control (2×) and 105 % of control. Under setting [7], the T/C is 108 % of control and 115 % of control.

Regarding `CN(CC(=O)O)C(=O)CNC(=O)CNC(=O)OCc1ccccc1` (HELM PEPTIDE1{[O=C(OCc1ccccc1)[*:2]].G.G.[Sar]}$$$$V2.0), the T/C is 104 % of control under setting [4]; 107 % of control under setting [9]; 98 % of control (dose: 400.0 mg/kg/injection, schedule: Q01DX009 (ip), vehicle: Klucel (hydroxypropylcellulose) (HPC)).
